Source: US20220142948A1, “COMPOSITIONS AND METHODS FOR MODULATING METABOLIC REGULATORS OF T CELL PATHOGENICITY” (The Broad Institute, Inc., priority 2019, published 2022)
Entries after “also recorded” stand apart in the source; their conditions may differ.

What was measured:
[1] = system: experimental autoimmune encephalomyelitis (EAE); experiment: Active EAE (MOG35-55/CFA immunization) with DFMO in drinking water; type: in vivo, mouse
Method: Experimental Autoimmune Encephalomyelitis (EAE). […] Equivalent of 40 μg MOG peptide was injected per mouse subcutaneously followed by pertussis toxin injection intravenously on day 0 and day 2 of immunization. Mice were treated with 0.5% DFMO in drinking water for 10 days as indicated. DFMO was replenished every third day.
Experimental Autoimmune Encephalomyelitis (EAE). […] Equivalent of 40 μg MOG peptide was injected per mouse subcutaneously followed by pertussis toxin injection intravenously on day 0 and day 2 of immunization. Mice were monitored and assigned grades for clinical signs of EAE using the following scoring system: 0, healthy; 1, limp tail; 2, impaired righting reflex or ataxic gait; 3, hind limb paralysis; 4, total limb paralysis; 5, moribund or death. Mice with a score of >4 were euthanized. If mice died during the course of the experiment, their clinical score of 5 was included in the analysis for the remainder of the experiment.

ODC = molecular target: T1, ODC (Homo sapiens, UniProt P11926); conditions: cited from earlier work
T1 sequence (P11926 1-461): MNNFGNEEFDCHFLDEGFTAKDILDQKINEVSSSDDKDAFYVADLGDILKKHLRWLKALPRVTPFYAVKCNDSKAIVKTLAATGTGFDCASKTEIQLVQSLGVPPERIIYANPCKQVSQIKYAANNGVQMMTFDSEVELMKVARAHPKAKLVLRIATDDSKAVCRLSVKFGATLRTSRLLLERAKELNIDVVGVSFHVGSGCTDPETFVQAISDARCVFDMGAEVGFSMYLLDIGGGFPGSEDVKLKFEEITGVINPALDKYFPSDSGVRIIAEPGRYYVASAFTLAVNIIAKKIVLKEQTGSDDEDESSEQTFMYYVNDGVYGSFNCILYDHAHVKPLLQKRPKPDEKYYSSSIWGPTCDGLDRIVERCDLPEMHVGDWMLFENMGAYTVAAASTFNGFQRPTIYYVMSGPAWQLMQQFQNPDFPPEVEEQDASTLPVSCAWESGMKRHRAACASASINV

For `NCCC[C@](N)(C(=O)O)C(F)F` [DFMO, 2-(difluoromethyl)ornithine], the “EAE clinical score, onset and severity” value ([1]; 0.5% DFMO in drinking water for 10 days) was “effective in reducing EAE; also recorded: decreases the EAE score; also recorded: delays EAE onset; also recorded: significantly delayed the onset and severity of EAE; also recorded: significant impact in curtailing EAE”, the “Foxp3+CD4+ T cells (Tregs)” value ([1]; lymphocytes isolated from CNS) was “promotes Tregs; also recorded: increased frequency” and the “frequency of cytokine producing cells” value ([1]; lymphocytes isolated from CNS) was “no difference”. For the same compound, the “uptake of exogenous putrescine” value (ODC; cells treated in vivo with DFMO) was “significantly increase” and the ODC activity (ODC; in vivo) was “irreversibly inhibit”.
